Measurements published in patent US20250241870A1, “OXYRESVERATROL AND DERIVATIVES THEREOF FOR USE IN LIPOLYSIS” (Caliway Biopharmaceuticals Co., Ltd., priority 2024, published 2025).
Where two headings read alike, the source gives them in different places.

What was measured:
[1] = MTT assay, cell viability rate of 3T3-L1 mature adipocytes; assay type: cell-based; details: mouse
Method: (§1) 3T3-L1 cell subculture medium (preadipocytes): DMEM+10% BCS+1% P/S.
(§2) 3T3-L1 cell induction differentiation medium (mature adipocytes): DMI Medium: DMEM+10% FBS+1% P/S+0.5 μM IBMX+0.1 μM dexamethasone+5 μg/mL insulin; and INS Medium: DMEM+10% FBS+1% P/S+5 μg/mL insulin. IBMX stock solution was prepared as follows: 500 mM solution in DMSO diluted and used to prepare the differentiation medium. Dexamethasone stock solution was preprepared as follows: 10 mM solution in EtOH diluted and used to prepare the differentiation medium. Insulin stock solution was prepared as follows: 10 mg/mL solution in double distilled water (ddw) diluted and used to prepare the differentiation medium.
(§3) Steps to induce differentiation: The adipocyte precursors 3T3-L1 cells (purchased from the Food Industry Research and Development Institute, Taiwan; abbreviated as BCRC) were seeded in 12-well plates, such that each well contained 1×10^5 cells.
(§4) MTT assay: After 3T3-L1 cells were induced to differentiate into mature adipocytes for 8 days, Resveratrol or Oxyresveratrol was added for treatment for 24 hours, then the culture medium was replaced with MTT reagent (working concentration: 0.5 mg/mL), and cultured in a 37° C. incubator for 2 hours. After removing the supernatant, DMSO was added to dissolve the purple crystals, and an ELISA reader was used to measure the OD 570 nm absorbance value and OD 630 nm background absorbance value. The background value OD 630 nm was subtracted from the measured value OD 570 nm in each group to obtain the final absorbance value.
(§5) Calculation formula (cell viability rate): After measuring the absorbance value at 570 nm and subtracting the background absorbance at 630 nm, the final absorbance value was multiplied by the […] and divided by the average absorbance value of the Control group for calculation.
(§6) 3T3-L1 preadipocytes and mature adipocytes were cultured using the same cell subculture medium disclosed in Example 1 above. Adipocytes differentiation, MTT assay, and determination cell viability was conducted following the methods disclosed herein. See, e.g. Example 1 above.

3T3-L1 mature adipocytes = experiment: as above; assay type: cell-based; details: 24 hours; for Cell viability compared with DMSO Vehicle group / Effect on adipocytes compared with resveratrol at the same concentration: p<0.001; for Cell viability rate compared with 0.2% DMSO Vehicle group: 20 ppm, 40 ppm and 60 ppm, p<0.001, dose effect; for Effect on adipocytes compared with resveratrol at the same concentration: 40 ppm
Method: as §1, §2, §3, §4, §5, §6

[2] = Cell viability rate, Replicate 1
[3] = Cell viability rate, Replicate 2
[4] = Cell viability rate, Replicate 3
[5] = Cell viability rate, Replicate 4

SMILES | Cell viability compared with DMSO Vehicle group (3T3-L1 mature adipocytes; 50 ppm) | viability at 24 h, 50 ppm ([1]; Cell viability rate, Mean) [%] | viability at 24 h, 50 ppm [1, 2] [%] | viability at 24 h, 50 ppm [1, 3] [%] | viability at 24 h, 50 ppm [1, 4] [%] | viability at 24 h, 50 ppm [1, 5] [%] | Cell viability rate compared with 0.2% DMSO Vehicle group (3T3-L1 mature adipocytes) | also measured
COc1ccc(/C=C/c2cc(O)cc(O)c2)cc1O [IM05, 5-[(E)-2-(3-hydroxy-4-methoxyphenyl)ethenyl]benzene-1,3-diol] | significantly decreased | – | – | – | – | – | – | viability at 24 h, 50 ppm ([1]; 3T3-L1 mature adipocytes (differentiated from preadipocytes), 3T3-L1 mature adipocytes, drug 50 ppm, 0.2% DMSO, 24 hours, mean of 4 replicates, read-out: Cell viability rate, Mean): 72.4%; viability at 24 h, 50 ppm ([1]; 3T3-L1 mature adipocytes (differentiated from preadipocytes), 3T3-L1 mature adipocytes, drug 50 ppm, 0.2% DMSO, 24 hours, read-out: Cell viability rate, Replicate 1): 66.5%; viability at 24 h, 50 ppm ([1]; 3T3-L1 mature adipocytes (differentiated from preadipocytes), 3T3-L1 mature adipocytes, drug 50 ppm, 0.2% DMSO, 24 hours, read-out: Cell viability rate, Replicate 2): 71.2%; viability at 24 h, 50 ppm ([1]; 3T3-L1 mature adipocytes (differentiated from preadipocytes), 3T3-L1 mature adipocytes, drug 50 ppm, 0.2% DMSO, 24 hours, read-out: Cell viability rate, Replicate 3): 73.5%; viability at 24 h, 50 ppm ([1]; 3T3-L1 mature adipocytes (differentiated from preadipocytes), 3T3-L1 mature adipocytes, drug 50 ppm, 0.2% DMSO, 24 hours, read-out: Cell viability rate, Replicate 4): 78.4%
Oc1cc(O)cc(/C=C/c2ccc(O)cc2O)c1 [Oxyresveratrol, 4-[(E)-2-(3,5-dihydroxyphenyl)ethenyl]benzene-1,3-diol] | significantly decreased | 39.6 | 43.2 | 38 | 37 | 40 | significantly lower than 0.2% DMSO Vehicle group | viability at 24 h, 20 ppm ([1]; Average viability (%)): 76.8 ± 3.27%; viability at 24 h, 40 ppm ([1]; Average viability (%)): 28.65 ± 0.26%; viability at 24 h, 60 ppm ([1]; Average viability (%)): 12.5 ± 1.09%; Effect on adipocytes compared with resveratrol at the same concentration (3T3-L1 mature adipocytes; listed as OxyR): more effective in reducing adipocytes than Res; Effect on adipocytes compared with resveratrol at the same concentration (3T3-L1 mature adipocytes; listed as oxyresveratrol): better inhibitory effects against adipocytes as compared with resveratrol; Effect on adipocytes survival compared with derivatives TriacetylR and IM05 (3T3-L1 mature adipocytes; 50 ppm): more effective in reducing adipocytes survival than its derivatives; Cell viability rate compared with resveratrol at the same concentration (3T3-L1 mature adipocytes; 60 ppm): no significant difference in cell viability rate
Oc1ccc(C=Cc2cc(O)cc(O)c2)cc1 [Resveratrol] | – | – | – | – | – | – | significantly lower than 0.2% DMSO Vehicle group | viability at 24 h, 20 ppm ([1]; 3T3-L1 mature adipocytes (differentiated from preadipocytes), 3T3-L1 mature adipocytes, drug 20 ppm, 0.2% DMSO, 24 hours, relative to Control, mean ± spread of 3 replicates, read-out: Average viability (%)): 69.6 ± 1.36%; viability at 24 h, 40 ppm ([1]; 3T3-L1 mature adipocytes (differentiated from preadipocytes), 3T3-L1 mature adipocytes, drug 40 ppm, 0.2% DMSO, 24 hours, relative to Control, mean ± spread of 3 replicates, read-out: Average viability (%)): 43.4 ± 1.47%; viability at 24 h, 60 ppm ([1]; 3T3-L1 mature adipocytes (differentiated from preadipocytes), 3T3-L1 mature adipocytes, drug 60 ppm, 0.2% DMSO, 24 hours, relative to Control, mean ± spread of 3 replicates, read-out: Average viability (%)): 14.1 ± 0.6%
CC(=O)Oc1ccc(/C=C/c2cc(OC(C)=O)cc(OC(C)=O)c2)cc1 [TriacetyIR, [4-[(E)-2-(3,5-diacetyloxyphenyl)ethenyl]phenyl] acetate] | significantly decreased | 68.9 | 73.2 | 64 | 67.2 | 71.2 | – | –
